Results published in US8604033B2, “Preparation of 4-amino-thiazoles and 3-amino-1,2,4-thiadiazoles and their use as allosteric modulators of metabotropic glutamate receptors” (Addex Pharma S.A., priority 2010, dated 2013).
Where “and” joins values, the source holds several entries; their conditions need not be identical. Equal values may be shown once.

How the values were obtained:
[1] = molecular target: T1, recombinant human mGluR4a receptors (Homo sapiens, UniProt Q14833); assay: mGluR4 assay on HEK-expressing human mGluR4 (fluorescent cell based Ca2+ mobilization assay, FLIPR); conditions: HEK-293 cells expressing hmGluR4; enhancement of EC25 glutamate response; mean of at least three independent experiments in duplicate; read-out: Ca^2+ Flux (mean EC50)
T1 construct: expressed in transfected cells
Text: mGluR4 Assay on HEK-Expressing Human mGluR4 The compounds of the present invention are positive allosteric modulators of mGluR4 receptor. Their activity was examined on recombinant human mGluR4a receptors by detecting changes in intracellular Ca^2+ concentration, using the fluorescent Ca^2+-sensitive dye Fluo4-(AM) and a Fluorometric Imaging Plate Reader (FLIPR, Molecular Devices, Sunnyvale, Calif.). The cDNA encoding the human metabotropic glutamate receptor (hmGluR4), (accession number NM_000841.1, NCBI Nucleotide database browser), was subcloned into an expression vector containing also the hygromycin resistance gene. In parallel, the cDNA encoding a G protein allowing redirection of the activation signal to intracellular calcium flux was subcloned into a different expression vector containing also the puromycin resistance gene. Transfection of both these vectors into HEK293 cells with PolyFect reagent (Qiagen) according to supplier's protocol, and hygromycin and puromycin treatment allowed selection of antibiotic resistant cells which had integrated stably one or more copies of the plasmids. Positive cellular clones expressing hmGluR4 were identified in a functional assay measuring changes in calcium fluxes in response to glutamate or selective known mGluR4 orthosteric agonists and antagonists. HEK-293 cells expressing hmGluR4 were maintained in media containing DMEM, dialyzed Fetal Calf Serum (10%), Glutamax™ (2 mM), Penicillin (100 units/mL), Streptomycin (100 μg/mL), Geneticin (100 μg/mL) and Hygromycin-B (40 μg/mL) and puromycin (1 μg/mL) at 37° C./5% CO2. Human mGluR4HEK-293 cells were plated out 24 hours prior to FLIPR^384 assay in black-walled, clear-bottomed, poly-L-ornithine-coated 384-well plates at a density of 25,000 cells/well in a glutamine/glutamate free DMEM medium containing foetal bovine serum (10%), penicillin (100 units/mL) and streptomycin (100 μg/mL) at 37° C./5% CO2. On the day of the assay, the medium was aspirated and the cells were loaded with a 3 μM solution of Fluo4-AM (LuBioScience, Lucerne, Switzerland) in 0.03% pluronic acid. After 1 hour at 37° C./5% CO2, the non incorporated dye was removed by washing cell plate with the assay buffer and the cells were left in the dark at room temperature for […] before testing. All assays were performed in a pH 7.4 buffered-solution containing 20 mM HEPES, 143 mM NaCl, 6 mM KCl, 1 mM MgSO4, 1 mM CaCl2, 0.125 mM sulfapyrazone and 0.1% glucose. After 10 s of basal fluorescence recording, various concentrations of the compounds of the invention were added to the cells. Changes in fluorescence levels were first monitored for 180 s in order to detect any agonist activity of the compounds. Then the cells were stimulated by an EC25 glutamate concentration for an additional 110 s in order to measure enhancing activities of the compounds of the invention. EC25 glutamate concentration is the concentration giving 25% of the maximal glutamate response. The concentration-response curves of representative compounds of the present invention were generated using the Prism GraphPad software (Graph Pad Inc, San Diego, USA). The curves were fitted to a four-parameter logistic equation: (Y=Bottom+(Top−Bottom)/(1+10^((Log EC50−X)*Hill Slope) allowing the determination of EC50 values. The Table 3 below represents the mean EC50 obtained from at least three independent experiments of selected molecules performed in duplicate.

T1 sequence (Q14833 33-912): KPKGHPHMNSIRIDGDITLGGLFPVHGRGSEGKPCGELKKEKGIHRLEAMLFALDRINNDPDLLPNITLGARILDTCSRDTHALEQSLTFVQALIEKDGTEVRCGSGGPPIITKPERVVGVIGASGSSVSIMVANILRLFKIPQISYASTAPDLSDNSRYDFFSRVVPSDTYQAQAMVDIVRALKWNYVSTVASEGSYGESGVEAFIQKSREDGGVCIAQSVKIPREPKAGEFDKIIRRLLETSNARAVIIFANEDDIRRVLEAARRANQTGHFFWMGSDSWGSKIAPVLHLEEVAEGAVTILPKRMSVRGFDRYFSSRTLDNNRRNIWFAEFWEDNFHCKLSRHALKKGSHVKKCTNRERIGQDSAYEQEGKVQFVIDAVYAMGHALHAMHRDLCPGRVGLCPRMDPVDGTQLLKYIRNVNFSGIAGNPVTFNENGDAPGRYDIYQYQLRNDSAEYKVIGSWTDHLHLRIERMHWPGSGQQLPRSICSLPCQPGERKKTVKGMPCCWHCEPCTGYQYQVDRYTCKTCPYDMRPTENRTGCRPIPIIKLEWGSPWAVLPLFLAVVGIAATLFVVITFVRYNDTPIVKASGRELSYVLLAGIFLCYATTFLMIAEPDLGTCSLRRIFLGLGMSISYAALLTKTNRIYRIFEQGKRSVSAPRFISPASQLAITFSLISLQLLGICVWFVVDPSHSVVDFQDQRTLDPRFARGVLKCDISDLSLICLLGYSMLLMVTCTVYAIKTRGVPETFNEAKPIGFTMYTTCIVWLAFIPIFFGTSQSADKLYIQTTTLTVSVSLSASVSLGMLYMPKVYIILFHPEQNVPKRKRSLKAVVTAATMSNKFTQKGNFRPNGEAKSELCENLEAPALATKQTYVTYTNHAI

SMILES	EC50 [1] [nM]	melting point
c1ccc(Nc2nsc(-c3cn[nH]c3)n2)nc1 [Compound 1-2, 5-(1H-Pyrazol-4-yl)-N-(pyridin-2-yl)-1,2,4-thiadiazol-3-amine]	100 to 1000	–
c1ccc(Nc2csc(-c3cn[nH]c3)n2)nc1 [Compound 1-1, 2-(1H-Pyrazol-4-yl)-N-(pyridin-2-yl)thiazol-4-amine]	< 100	207 to 209 °C and 209 to 210 °C
Fc1cccc(Nc2csc(-c3cn[nH]c3)n2)n1 [Compound 1-3, N-(6-Fluoropyridin-2-yl)-2-(1H-pyrazol-4-yl)thiazol-4-amine]	< 100	238 to 240 °C
COc1ccnc(Nc2csc(-c3cn[nH]c3)n2)n1 [Compound 1-5, N-(4-Methoxypyrimidin-2-yl)-2-(1H-pyrazol-4-yl)thiazol-4-amine]	100 to 1000	250 to 252 °C
Cc1ccnc(Nc2csc(-c3cn[nH]c3)n2)n1 [Compound 1-4, N-(4-Methylpyrimidin-2-yl)-2-(1H-pyrazol-4-yl)thiazol-4-amine]	100 to 1000	230 to 232 °C

The remaining lines, values ahead:

EC50 [1] [nM]	melting point	SMILES
100 to 1000	204 to 206 °C	FC(F)(F)c1n[nH]cc1-c1nc(Nc2ccccn2)cs1 [Compound 1-8, N-(Pyridin-2-yl)-2-(3-(trifluoromethyl)-1H-pyrazol-4-yl)thiazol-4-amine]
< 100	–	FC(F)(F)c1n[nH]cc1-c1nc(Nc2ncccn2)cs1 [Compound 1-11, N-(Pyrimidin-2-yl)-2-(3-(trifluoromethyl)-1H-pyrazol-4-yl)thiazol-4-amine]
< 100	217 °C (dec.)	c1cnc(Nc2csc(-c3cn[nH]c3)n2)nc1 [Compound 1-7, 2-(1H-Pyrazol-4-yl)-N-(pyrimidin-2-yl)thiazol-4-amine]
100 to 1000	–	Cc1cccc(Nc2csc(-c3cn[nH]c3)n2)n1 [Compound 1-6, N-(6-Methylpyridin-2-yl)-2-(1H-pyrazol-4-yl)thiazol-4-amine]
< 100	141.3 °C	c1ccc(Nc2csc(-c3c[nH]nc3C3CC3)n2)nc1 [Compound 1-9, 2-(3-Cyclopropyl-1H-pyrazol-4-yl)-N-(pyridin-2-yl)thiazol-4-amine]
< 100	241 °C	c1cnc(Nc2csc(-c3c[nH]nc3C3CC3)n2)nc1 [Compound 1-10, 2-(3-Cyclopropyl-1H-pyrazol-4-yl)-N-(pyrimidin-2-yl)thiazol-4-amine]
